Values joined by “and” are separate entries in the source; they are usually repeats but may differ in a detail not shown here. Equal values may be shown once.
System: 186277-243-T-J2-PDC spheroids with HUVEC/MSC, viability
Experiment: Anticancer human tumor 186277-243-T-J2-PDC patient-derived colon adenocarcinoma cell line growth inhibition [CLK]
Settings: for viability, T/C: stronger effect = lower value
In short: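 Patient-derived tumor cells grown as complex spheroids with HUVEC endothelial cells and mesenchymal stem cells, treated with drug combinations. Concentrations descend in half-log steps from near clinical Cmax, or from 10 microM if Cmax unknown.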
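Note: compound exposure lasted seven days before readout.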
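Throughout, for viability, T/C: 100% = DMSO vehicle control wells.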

SMILES: COc1ccc([C@@H](O)c2cc(-c3ncnc4cc(N5CCOCC5)ccc34)c(F)cc2Cl)nn1
- viability, T/C (compound 0.0316 µM): 95.1%
- viability, T/C (compound 0.1 µM): 96.1%
- viability, T/C (compound 0.316 µM): 117%
- viability, T/C (compound 1 µM): 85.1%
- viability, T/C (compound 3.16 µM): 87.2%
- viability, T/C (compound 10 µM): 49.2%
- IC50 (curve of compound): 9.91 µM

SMILES: CCCS(=O)(=O)Nc1ccc(F)c(C(=O)c2c[nH]c3ncc(-c4ccc(Cl)cc4)cc23)c1F
- viability, T/C (compound 0.0316 µM): 97.7% and 105%
- viability, T/C (compound 0.1 µM): 87.2% and 89.4%
- viability, T/C (compound 0.316 µM): 113% and 109%
- viability, T/C (compound 1 µM): 104% and 88.5%
- viability, T/C (compound 3.16 µM): 120% and 94%
- viability, T/C (compound 10 µM): 82.3% and 88%
- IC50 (curve of compound): > 10 µM

SMILES: CCCS(=O)(=O)Nc1ccc(F)c(C(=O)c2c[nH]c3ncc(-c4ccc(Cl)cc4)cc23)c1F + CN1CCN(c2cc(C(=O)Nc3cc4cc(-c5cnn(C)c5)ccc4cn3)ccn2)CC1
- IC50 (curve of first compound, second compound 0.0316 µM): > 10 µM
- IC50 (curve of first compound, second compound 0.1 µM): > 10 µM
- IC50 (curve of first compound, second compound 0.316 µM): < 0.0316 µM
- IC50 (curve of first compound, second compound 1 µM): < 0.0316 µM
- IC50 (curve of first compound, second compound 3.16 µM): < 0.0316 µM
- IC50 (curve of first compound, second compound 10 µM): < 0.0316 µM
- viability, T/C (second compound 0.0316 µM, first compound 0.0316 µM): 109%
- viability, T/C (second compound 0.0316 µM, first compound 0.1 µM): 104%
- viability, T/C (second compound 0.0316 µM, first compound 0.316 µM): 103%
- viability, T/C (second compound 0.0316 µM, first compound 1 µM): 97.4%
- viability, T/C (second compound 0.0316 µM, first compound 3.16 µM): 113%
- viability, T/C (second compound 0.0316 µM, first compound 10 µM): 89.6%
- viability, T/C (second compound 0.1 µM, first compound 0.0316 µM): 87.4%
- viability, T/C (second compound 0.1 µM, first compound 0.1 µM): 82.3%
- viability, T/C (second compound 0.1 µM, first compound 0.316 µM): 86.7%
- viability, T/C (second compound 0.1 µM, first compound 1 µM): 99.4%
- viability, T/C (second compound 0.1 µM, first compound 3.16 µM): 95.9%
- viability, T/C (second compound 0.1 µM, first compound 10 µM): 69.2%
- viability, T/C (second compound 0.316 µM, first compound 0.0316 µM): 30.5%
- viability, T/C (second compound 0.316 µM, first compound 0.1 µM): 30.9%
- viability, T/C (second compound 0.316 µM, first compound 0.316 µM): 31.8%
- viability, T/C (second compound 0.316 µM, first compound 1 µM): 32.1%
- viability, T/C (second compound 0.316 µM, first compound 3.16 µM): 22.5%
- viability, T/C (second compound 0.316 µM, first compound 10 µM): 20.1%
- viability, T/C (second compound 1 µM, first compound 0.0316 µM): 0.48%
- viability, T/C (second compound 1 µM, first compound 0.1 µM): 0.83%
- viability, T/C (second compound 1 µM, first compound 0.316 µM): 1.17%
- viability, T/C (second compound 1 µM, first compound 1 µM): 1.25%
- viability, T/C (second compound 1 µM, first compound 3.16 µM): 0.57%
- viability, T/C (second compound 1 µM, first compound 10 µM): 0.46%
- viability, T/C (second compound 3.16 µM, first compound 0.0316 µM): 1.11%
- viability, T/C (second compound 3.16 µM, first compound 0.1 µM): 1.22%
- viability, T/C (second compound 3.16 µM, first compound 0.316 µM): 2.84%
- viability, T/C (second compound 3.16 µM, first compound 1 µM): 1.64%
- viability, T/C (second compound 3.16 µM, first compound 3.16 µM): 2.61%
- viability, T/C (second compound 3.16 µM, first compound 10 µM): 1.65%
- viability, T/C (second compound 10 µM, first compound 0.0316 µM): 0.65%
- viability, T/C (second compound 10 µM, first compound 0.1 µM): 0.72%
- viability, T/C (second compound 10 µM, first compound 0.316 µM): 1.61%
- viability, T/C (second compound 10 µM, first compound 1 µM): 0.95%
- viability, T/C (second compound 10 µM, first compound 3.16 µM): 1.27%
- viability, T/C (second compound 10 µM, first compound 10 µM): 0.74%

From PubChem BioAssay AID2060625 (Molecular Pharmacology Branch, DTP, NCI, 2025)
